In PubChem BioAssay (NCI):
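Growth conditions: 96-well plates. Treatment: test compound, 48 hours, 5 concentrations. Analysis: linear interpolation between bracketing concentrations; unreached endpoints set to highest concentration. At the GI50, growth is halved. Definition used: TGI = concentration required for complete inhibition of growth.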

Tests used:
Test in all cases: DTP human tumour cell line panel, 48 h
786-0 renal = test system: 786-0 renal
A498 renal = test system: A498 renal
A549 NSCLC = test system: A549 NSCLC
ACHN renal = test system: ACHN renal
BT-549 breast = test system: BT-549 breast
CAKI-1 renal = test system: CAKI-1 renal
CCRF-CEM leukemia = test system: CCRF-CEM leukemia
COLO 205 colon = test system: COLO 205 colon
DU-145 prostate = test system: DU-145 prostate
EKVX NSCLC = test system: EKVX NSCLC
HCC-2998 colon = test system: HCC-2998 colon
HCT-116 colon = test system: HCT-116 colon
HCT-15 colon = test system: HCT-15 colon
HL-60(TB) leukemia = test system: HL-60(TB) leukemia
HOP-62 NSCLC = test system: HOP-62 NSCLC
HOP-92 NSCLC = test system: HOP-92 NSCLC
HS 578T breast = test system: HS 578T breast
HT29 colon = test system: HT29 colon
IGROV1 ovarian = test system: IGROV1 ovarian
K-562 leukemia = test system: K-562 leukemia
KM12 colon = test system: KM12 colon
LOX IMVI melanoma = test system: LOX IMVI melanoma
M14 melanoma = test system: M14 melanoma
MALME-3M melanoma = test system: MALME-3M melanoma
MCF7 breast = test system: MCF7 breast
MDA-MB-231 breast = test system: MDA-MB-231 breast
MDA-MB-435 = test system: MDA-MB-435
MOLT-4 leukemia = test system: MOLT-4 leukemia
NCI-H226 lung = test system: NCI-H226 lung
NCI-H23 lung = test system: NCI-H23 lung
NCI-H460 lung = test system: NCI-H460 lung
NCI-H522 lung = test system: NCI-H522 lung
NCI/ADR-RES ovarian = test system: NCI/ADR-RES ovarian
OVCAR-3 ovarian = test system: OVCAR-3 ovarian
OVCAR-4 ovarian = test system: OVCAR-4 ovarian
OVCAR-5 ovarian = test system: OVCAR-5 ovarian
OVCAR-8 ovarian = test system: OVCAR-8 ovarian
PC-3 prostate = test system: PC-3 prostate
RPMI-8226 leukemia = test system: RPMI-8226 leukemia
RXF 393 renal = test system: RXF 393 renal
SF-268 CNS = test system: SF-268 CNS
SF-295 CNS = test system: SF-295 CNS
SF-539 CNS = test system: SF-539 CNS
SK-MEL-2 melanoma = test system: SK-MEL-2 melanoma
SK-MEL-28 melanoma = test system: SK-MEL-28 melanoma
SK-MEL-5 melanoma = test system: SK-MEL-5 melanoma
SK-OV-3 ovarian = test system: SK-OV-3 ovarian
SN12C renal = test system: SN12C renal
SNB-19 CNS = test system: SNB-19 CNS
SNB-75 CNS = test system: SNB-75 CNS
SR leukemia = test system: SR leukemia
SW-620 colon = test system: SW-620 colon
T-47D breast = test system: T-47D breast
TK-10 renal = test system: TK-10 renal
U251 CNS = test system: U251 CNS
UACC-257 melanoma = test system: UACC-257 melanoma
UACC-62 melanoma = test system: UACC-62 melanoma
UO-31 renal = test system: UO-31 renal

How did the GI50 (786-0 renal) turn out when `COc1ccc(C2=C(Br)C(=O)OC2)cc1Cl` was run?
The GI50 was 34 µM.

What about the TGI (786-0 renal) of the same molecule?
The TGI was over 100 µM.

What about the GI50 (A498 renal) of the same molecule?
The GI50 was 27.9 µM.

And the TGI (A498 renal)?
The TGI was over 80.7 µM.

What about the GI50 (A549 NSCLC) of the same molecule?
The GI50 was 18.5 µM.

And the TGI (A549 NSCLC)?
Its TGI is 53.6 µM.

What about the GI50 (ACHN renal) of the same molecule?
The GI50 was 19.3 µM.

And the TGI (ACHN renal)?
The TGI was 39.9 µM.

What about the GI50 (BT-549 breast) of the same molecule?
The GI50 was 22.7 µM.

What about the TGI (BT-549 breast) of the same molecule?
The TGI was 64.7 µM.

What about the GI50 (CAKI-1 renal) of the same molecule?
Its GI50 is 8.52 µM.

And the TGI (CAKI-1 renal)?
The TGI was 51.1 µM.

And the GI50 (CCRF-CEM leukemia)?
Its GI50 is 21.9 µM.

And the TGI (CCRF-CEM leukemia)?
The TGI was over 68 µM.

What about the GI50 (COLO 205 colon) of the same molecule?
Its GI50 is 0.832 µM.

And the TGI (COLO 205 colon)?
Its TGI is over 30.9 µM.

What about the GI50 (DU-145 prostate) of the same molecule?
The GI50 was 20.8 µM.

And the TGI (DU-145 prostate)?
The TGI was 88.9 µM.

What about the GI50 (EKVX NSCLC) of the same molecule?
The GI50 was 16.7 µM.

What about the TGI (EKVX NSCLC) of the same molecule?
The TGI was 71.4 µM.

What about the GI50 (HCC-2998 colon) of the same molecule?
The GI50 was 14.9 µM.

What about the TGI (HCC-2998 colon) of the same molecule?
The TGI was 38.2 µM.

And the GI50 (HCT-116 colon)?
The GI50 was 20.4 µM.

And the TGI (HCT-116 colon)?
Its TGI is 49.5 µM.

What about the GI50 (HCT-15 colon) of the same molecule?
The GI50 was 19.4 µM.

What about the TGI (HCT-15 colon) of the same molecule?
Its TGI is over 55.1 µM.

What about the GI50 (HL-60(TB) leukemia) of the same molecule?
The GI50 was 42.8 µM.

What about the TGI (HL-60(TB) leukemia) of the same molecule?
The TGI was over 100 µM.

And the GI50 (HOP-62 NSCLC)?
Its GI50 is 44.4 µM.

And the TGI (HOP-62 NSCLC)?
The TGI was over 100 µM.

And the GI50 (HOP-92 NSCLC)?
Its GI50 is 45.2 µM.

And the TGI (HOP-92 NSCLC)?
The TGI was over 100 µM.

And the GI50 (HS 578T breast)?
Its GI50 is 41.2 µM.

And the TGI (HS 578T breast)?
The TGI was over 88.5 µM.

What about the GI50 (HT29 colon) of the same molecule?
The GI50 was 48.4 µM.

And the TGI (HT29 colon)?
Its TGI is over 100 µM.

What about the GI50 (IGROV1 ovarian) of the same molecule?
The GI50 was 45.9 µM.

What about the TGI (IGROV1 ovarian) of the same molecule?
Its TGI is over 100 µM.

And the GI50 (K-562 leukemia)?
Its GI50 is 33.7 µM.

What about the TGI (K-562 leukemia) of the same molecule?
The TGI was over 86.2 µM.

And the GI50 (KM12 colon)?
The GI50 was 23.6 µM.

What about the TGI (KM12 colon) of the same molecule?
The TGI was over 84.4 µM.

What about the GI50 (LOX IMVI melanoma) of the same molecule?
Its GI50 is 18.9 µM.

What about the TGI (LOX IMVI melanoma) of the same molecule?
Its TGI is 46.5 µM.

What about the GI50 (M14 melanoma) of the same molecule?
The GI50 was over 53 µM.

What about the TGI (M14 melanoma) of the same molecule?
The TGI was over 100 µM.

And the GI50 (MALME-3M melanoma)?
Its GI50 is 37.3 µM.

What about the TGI (MALME-3M melanoma) of the same molecule?
Its TGI is over 78.3 µM.

And the GI50 (MCF7 breast)?
Its GI50 is 29.6 µM.

What about the TGI (MCF7 breast) of the same molecule?
Its TGI is over 93 µM.

What about the GI50 (MDA-MB-231 breast) of the same molecule?
Its GI50 is 24.7 µM.

What about the TGI (MDA-MB-231 breast) of the same molecule?
Its TGI is 69.9 µM.

And the GI50 (MDA-MB-435)?
The GI50 was 27.4 µM.

And the TGI (MDA-MB-435)?
The TGI was over 100 µM.

And the GI50 (MOLT-4 leukemia)?
Its GI50 is 29.5 µM.

What about the TGI (MOLT-4 leukemia) of the same molecule?
Its TGI is over 100 µM.

And the GI50 (NCI-H226 lung)?
Its GI50 is 25 µM.

What about the TGI (NCI-H226 lung) of the same molecule?
The TGI was 62.7 µM.

What about the GI50 (NCI-H23 lung) of the same molecule?
The GI50 was 29.5 µM.

And the TGI (NCI-H23 lung)?
Its TGI is over 100 µM.

And the GI50 (NCI-H460 lung)?
The GI50 was 33.2 µM.

And the TGI (NCI-H460 lung)?
Its TGI is over 100 µM.

And the GI50 (NCI-H522 lung)?
The GI50 was 37.8 µM.

What about the TGI (NCI-H522 lung) of the same molecule?
The TGI was over 100 µM.

And the GI50 (NCI/ADR-RES ovarian)?
The GI50 was 29.4 µM.

And the TGI (NCI/ADR-RES ovarian)?
The TGI was over 79.2 µM.

And the GI50 (OVCAR-3 ovarian)?
The GI50 was 45.7 µM.

And the TGI (OVCAR-3 ovarian)?
Its TGI is over 89.8 µM.

What about the GI50 (OVCAR-4 ovarian) of the same molecule?
The GI50 was 61.4 µM.

And the TGI (OVCAR-4 ovarian)?
Its TGI is over 100 µM.

And the GI50 (OVCAR-5 ovarian)?
Its GI50 is 51.2 µM.

What about the TGI (OVCAR-5 ovarian) of the same molecule?
The TGI was over 100 µM.

And the GI50 (OVCAR-8 ovarian)?
Its GI50 is 20.2 µM.

And the TGI (OVCAR-8 ovarian)?
The TGI was over 52.7 µM.

What about the GI50 (PC-3 prostate) of the same molecule?
The GI50 was 33.1 µM.

What about the TGI (PC-3 prostate) of the same molecule?
Its TGI is over 91.5 µM.

And the GI50 (RPMI-8226 leukemia)?
Its GI50 is 17.3 µM.

What about the TGI (RPMI-8226 leukemia) of the same molecule?
The TGI was 48.5 µM.

And the GI50 (RXF 393 renal)?
The GI50 was 26.8 µM.

And the TGI (RXF 393 renal)?
The TGI was over 72.4 µM.

And the GI50 (SF-268 CNS)?
Its GI50 is 32.9 µM.

What about the TGI (SF-268 CNS) of the same molecule?
Its TGI is 99.6 µM.

And the GI50 (SF-295 CNS)?
The GI50 was 34 µM.

And the TGI (SF-295 CNS)?
The TGI was 98.4 µM.

And the GI50 (SF-539 CNS)?
Its GI50 is 15.2 µM.

And the TGI (SF-539 CNS)?
The TGI was 39.8 µM.

What about the GI50 (SK-MEL-2 melanoma) of the same molecule?
Its GI50 is over 91.2 µM.

What about the TGI (SK-MEL-2 melanoma) of the same molecule?
The TGI was over 100 µM.

What about the GI50 (SK-MEL-28 melanoma) of the same molecule?
The GI50 was 30.9 µM.

What about the TGI (SK-MEL-28 melanoma) of the same molecule?
The TGI was over 93.1 µM.

What about the GI50 (SK-MEL-5 melanoma) of the same molecule?
Its GI50 is 29.1 µM.

And the TGI (SK-MEL-5 melanoma)?
The TGI was over 100 µM.

What about the TGI (SK-OV-3 ovarian) of the same molecule?
Its TGI is over 66.9 µM.

And the GI50 (SN12C renal)?
Its GI50 is 22.1 µM.

What about the TGI (SN12C renal) of the same molecule?
Its TGI is 52.3 µM.

What about the GI50 (SNB-19 CNS) of the same molecule?
Its GI50 is 10.6 µM.

What about the TGI (SNB-19 CNS) of the same molecule?
Its TGI is over 100 µM.

What about the GI50 (SNB-75 CNS) of the same molecule?
Its GI50 is 55.8 µM.

What about the TGI (SNB-75 CNS) of the same molecule?
Its TGI is over 100 µM.

And the GI50 (SR leukemia)?
Its GI50 is 22.1 µM.

What about the TGI (SR leukemia) of the same molecule?
Its TGI is over 100 µM.

What about the GI50 (SW-620 colon) of the same molecule?
Its GI50 is 32.2 µM.

What about the TGI (SW-620 colon) of the same molecule?
Its TGI is over 100 µM.

What about the GI50 (T-47D breast) of the same molecule?
The GI50 was 1.93 µM.

And the TGI (T-47D breast)?
Its TGI is 35.5 µM.

And the GI50 (TK-10 renal)?
Its GI50 is 26.8 µM.

And the TGI (TK-10 renal)?
Its TGI is 77.9 µM.

And the GI50 (U251 CNS)?
The GI50 was 28.5 µM.

What about the TGI (U251 CNS) of the same molecule?
The TGI was over 91.1 µM.

And the GI50 (UACC-257 melanoma)?
The GI50 was 21 µM.

What about the TGI (UACC-257 melanoma) of the same molecule?
The TGI was 59.5 µM.

What about the GI50 (UACC-62 melanoma) of the same molecule?
Its GI50 is 20.9 µM.

And the TGI (UACC-62 melanoma)?
Its TGI is over 64.4 µM.

And the GI50 (UO-31 renal)?
The GI50 was 39.6 µM.

And the TGI (UO-31 renal)?
The TGI was over 100 µM.
